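96-well plates; 48 h exposure; 5 concentrations. Endpoints by linear interpolation between flanking doses. Not reached: highest tested concentration assigned. GI50 = concentration required for 50% inhibition of growth. TGI denotes the concentration required for complete inhibition of growth.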
Assays:
Assay in all cases: inhibition of tumour cell growth, NCI panel, 48 h
EKVX NSCLC = system: EKVX NSCLC
HCT-15 colon = system: HCT-15 colon
KM12 colon = system: KM12 colon
M14 melanoma = system: M14 melanoma
NCI-H522 lung = system: NCI-H522 lung
OVCAR-4 ovarian = system: OVCAR-4 ovarian
SF-295 CNS = system: SF-295 CNS
SK-OV-3 ovarian = system: SK-OV-3 ovarian
HS 578T breast = system: HS 578T breast
MCF7 breast = system: MCF7 breast

Row | Compound | TGI (EKVX NSCLC) [µM] | TGI (HCT-15 colon) [µM] | TGI (KM12 colon) [µM] | TGI (M14 melanoma) [µM] | TGI (NCI-H522 lung) [µM] | TGI (OVCAR-4 ovarian) [µM] | TGI (SF-295 CNS) [µM] | TGI (SK-OV-3 ovarian) [µM] | GI50 (EKVX NSCLC) [µM] | GI50 (HCT-15 colon) [µM] | GI50 (HS 578T breast) [µM] | TGI (HS 578T breast) [µM] | GI50 (KM12 colon) [µM] | GI50 (M14 melanoma) [µM] | GI50 (NCI-H522 lung) [µM] | GI50 (OVCAR-4 ovarian) [µM] | GI50 (SF-295 CNS) [µM] | GI50 (SK-OV-3 ovarian) [µM] | GI50 (MCF7 breast) [µM] | TGI (MCF7 breast) [µM]
1 | COC(=O)C(=O)C1(CCC(C)=O)c2ccccc2-c2ccccc21 | > 100 | > 100 | > 100 | > 100 | > 100 | > 100 | > 100 | > 100 |  |  |  |  |  |  |  |  |  |  |  | 
2 | CC1(C)CCC[C@]23C(=O)O[C@](O)(C(=O)C4=C[C@@](C)(/C=C/CCCc5ccc6ccc7cccc8ccc5c6c78)CC[C@@]42O)[C@@H]13 | 0.485 | 0.425 | 0.34 | 0.409 | 0.475 | 0.616 | 0.336 | 0.324 | 0.216 | 0.148 | 0.251 | 0.812 | 0.154 | 0.196 | 0.2 | 0.259 | 0.178 | 0.178 |  | 
3 | CCOC(=O)C1N(S(=O)(=O)c2ccc(C)cc2)CCC12c1ccccc1N(C(C)=O)C2C(/C=C/C(=O)OC)=C/C(=O)OC (stereo not drawn) | > 100 |  | > 100 | > 100 | > 100 | > 100 | > 100 | > 100 |  |  |  |  |  |  |  |  |  |  |  | 
4 | CC(C)[C@@H]1C=C(c2ccccc2)c2ccccc2C1C(C#N)(C#N)C(C)C (stereo partly drawn) | > 100 | > 100 | > 100 | > 100 |  | > 100 | > 100 | > 100 |  |  |  |  |  |  |  |  |  |  |  | 
5 | Cc1cc(C)cc(-n2c3nc(=O)n(C)c(=O)c-3nc3ccccc32)c1 | 44.7 | 73 | > 100 | 77.4 | 44.2 | 41.5 | > 100 | > 100 |  |  |  |  |  |  |  |  |  |  |  | 
6 | Cc1cnc[nH]c1=O | > 100 | > 100 | > 100 | > 100 | > 100 | > 100 | > 100 | > 100 |  |  |  |  |  |  |  |  |  |  |  | 
7 | COC(=O)C[CH](C(=O)OC)[Ge]([CH3])([CH3])[S]c1ccccc1 (stereo not drawn) | 75.2 | 27.6 | 46.2 | 57.5 | 10.3 | 72.4 | 40 | 67 | 16.1 | 13.2 |  |  | 17 | 21.5 | 2.94 | 18.1 | 12.6 | 25.8 |  | 
8 | Cn1c2ccccc2c(=Nc2ccccc2)c2c3ccccc3[nH]c21 | 8.63 | 3.49 |  | 3.02 | > 100 | 22 | 2.22 | 5.08 | 3.21 | 1.51 | 1.46 | 4.58 |  | 1.65 | 2.29 | 5.41 | 1.03 | 2.16 | 0.284 | 1.86
9 | N/C(=N\NS(=O)(=O)c1ccccc1)Oc1ccc(Cl)cc1 | > 100 | > 100 | > 100 | > 100 | > 100 | > 100 | > 100 | > 100 |  |  |  |  |  |  |  |  |  |  |  | 
10 | O=c1[nH]cc(CS(=O)(=O)Cc2c[nH]c(=O)[nH]c2=O)c(=O)[nH]1 | > 100 | > 100 | > 100 | > 100 | > 100 | > 100 | > 100 |  |  |  |  | > 100 |  |  |  |  |  |  |  | > 100
11 | CCCCCCCCCCCC(=O)OCC1OC(n2cc(F)c(=O)[nH]c2=O)C(NC(=O)OCc2ccccc2)C(O)C1O (stereo not drawn) | 79.9 | 43.5 | 42.9 | 36.2 | 30.8 | 63.9 | 63.9 | > 100 |  |  |  |  |  |  |  |  |  |  |  | 
12 | Cc1cc(NS(=O)(=O)c2ccc(Nc3c4ccccc4nc4c(C(=O)Nc5ccc(S(=O)(=O)N=C(N)N)cc5)cccc34)cc2)no1 | > 100 | > 100 | > 100 | > 100 | > 100 | > 100 | > 100 | > 100 |  |  |  |  |  |  |  |  |  |  |  | 
13 | C=CN1C(=O)OC(c2ccccc2)C1c1ccccc1 (stereo not drawn) | > 100 | > 100 | > 100 | > 100 | > 100 | > 100 | > 100 | > 100 | > 100 | > 100 |  |  | > 100 | > 100 | > 100 | > 100 |  | > 100 |  | 
14 | COc1ccc2cccc(C(=O)c3ccc(C)c4c3CCC4)c2c1 | > 100 | 53.3 | > 100 | 57.6 | 64.1 | > 100 | > 100 | > 100 |  |  |  |  |  |  |  |  |  |  |  | 
15 | Cc1ccc(S(=O)(=O)N(/N=C(\N)Oc2ccc(Cl)cc2)C(=N)Oc2ccc(Cl)cc2)cc1 | > 100 | > 100 | > 100 | > 100 | > 100 | > 100 | > 100 | > 100 |  |  |  |  |  |  |  |  |  |  |  | 
16 | CCC1C(C)c2c([nH]c3ccccc23)C2C(=O)N(c3ccccc3)C(=O)C21 (stereo not drawn) | 38.3 | 31.2 | 32.1 | 33.4 |  | 38 | 32.3 | 44.1 |  |  |  |  |  |  |  |  |  |  |  | 
17 | CCCCCCCCCCCCn1c(C)nc2ccccc21 | 19.3 | 27.4 | 29 | 26.6 |  | 25.6 | 26.6 | 26.5 | 1.72 | 12.3 | 27.7 | 48.3 | 14.3 | 13.7 |  | 12.7 | 8.87 | 13.6 | 5.15 | 23.3
18 | COc1ccc(/C=C/c2c(C(=O)/C=C/c3ccc(Cl)cc3)c(C)nc3ccccc23)cc1 | 3.49 | 4.13 | 3.56 | 4.15 | 4.62 | 3.97 | 3.61 | 11.4 | 1.55 | 1.29 |  |  | 1.73 | 1.83 | 1.59 | 1.75 | 1.72 | 2.82 | 1.29 | 4.11
19 | COC(=O)/C=C/C(=O)C1C(C(=O)OC)C2(C(=O)OC)CCC1(C(=O)OC)N2 (stereo not drawn) | > 100 | > 100 | > 100 | > 100 |  | > 100 | > 100 | > 100 |  |  |  |  |  |  |  |  |  |  |  | 
20 | O=P(Oc1ccc(Cl)cc1)(Oc1ccc(Cl)cc1)N1CC1 | > 10 | > 10 | > 10 | > 10 |  | > 10 | > 10 | > 10 |  |  |  | > 10 |  |  |  |  |  |  |  | > 10
